Results on 3 molecules are retold here after paper PMC9865629, “Rhanteriol, a New Rhanterium suaveolens Desf. Lignan with Pharmacological Potential as an Inhibitor of Enzymes Involved in Neurodegeneration and Type 2 Diabetes” (Plants, 2023).

One data set concerns the target α-glucosidase. Nature of the data set: α-glucosidase inhibition assay. Format: biochemical. Particulars: pure compound and standard. The method, then:
Results are expressed as IC50 values (mg/mL for extracts and µM for pure compound), using GraphPad Prism 8 Software (San Diego, CA, USA). The assay was carried out in triplicate.

For data set [1], the target named is acetylcholinesterase (AChE) (Homo sapiens, UniProt P22303). The experiment in a line: biochemical. Particulars: read-out: % of inhibition against AChE. The method, then: (§1) The inhibition of AChE and BuChE was evaluated using Ellman’s method, as previously reported. Briefly, extracts and pure compound were incubated with AChE or BuChE (25 µL, 0.05 U/mL), DTNB (125 µL, 3 mM) and buffer B (25 µL, 50 mM Tris–HCl, pH 8 containing 0.1% BSA) for 10 min at 37 °C. Then, the substrate of the reaction, the acetylthiocholine iodide or butyrylthiocholine chloride (25 µL, 5 mM), was added, and the absorbance was measured at 405 nm, after 10 min. Galanthamine was used as the standard in both assays. Results are expressed as IC50 values (mg/mL for extracts and µM for pure compound), using GraphPad Prism 8 Software (San Diego, CA, USA). The test was carried out in triplicate.

Data set [2] has as its target butyrylcholinesterase (BuChE) (Homo sapiens, UniProt P06276). Nature of the data set: biochemical. The method, then:
as §1

Data set [3] concerns HeLa (cervical carcinoma) cells. The experiment in a line: Cell viability MTT assay, HeLa. The class given is cell-based. Particulars: 100, 50, 25 µM for 48 h, data not shown. The method, then:
(§2) HeLa (cervical carcinoma), Jurkat (T-cell leukemia), and U937 (monocytic leukemia) cell lines were obtained from the American Type Cell Culture (ATCC) (Rockville, MD, USA). Cells were maintained in DMEM (HeLa) or RPMI 1640 (Jurkat and U937), supplemented with 10% FBS, 100 mg/L streptomycin and penicillin 100 IU/mL at 37 °C in a humidified atmosphere of 5% CO2. To ensure logarithmic growth, cells were subcultured every two days. Stock solutions (50 mM) of purified compound in DMSO were stored in the dark at 4 °C. Appropriate dilutions were prepared in a culture medium immediately prior to use.
(§3) Cell viability was evaluated using a colorimetric assay based on an MTT ([3-(4,5-dimethylthiazol-2-yl)-2,5-diphenyltetrazolium bromide]) assay, in order to compare the effect of potentially cytotoxic substances with a control condition. Briefly, cells were plated in 96-well tissue culture plates (3.5 × 10^3 cells/well) and after 24 h, the medium was replaced with a fresh one alone or one containing serial dilutions of compound 1 (100, 50, 25 µM), and incubation was performed for 48 h. […] The optical density (OD) of each well was measured with a microplate spectrophotometer (Multiskan Spectrum Thermo Electron Corporation reader, Thermo Fisher Scientific, Waltham, Massachusetts, United States) equipped with a 620 nm filter. Cell vitality was calculated as % vitality = 100 × (OD treated/OD DMSO).
For orientation: Tetrazolium dyes change colour on reduction, which living cells bring about.

Data set [4] has as its system U937 (monocytic leukemia) cells. Nature of the data set: Cell viability MTT assay, U937. Format: cell-based. Conditions: 100, 50, 25 µM for 48 h, data not shown. The protocol:
as §2, §3

Data set [5] relates to Jurkat (T-cell leukemia) cells. Nature of the data set: Cell viability MTT assay, Jurkat. Format: cell-based. Conditions: 100, 50, 25 µM for 48 h, data not shown. The protocol: as §2, with “use. […]” for “use.”
Cell viability was evaluated using a colorimetric assay based on an MTT ([3-(4,5-dimethylthiazol-2-yl)-2,5-diphenyltetrazolium bromide]) assay, in order to compare the effect of potentially cytotoxic substances with a control condition. […] The optical density (OD) of each well was measured with a microplate spectrophotometer (Multiskan Spectrum Thermo Electron Corporation reader, Thermo Fisher Scientific, Waltham, Massachusetts, United States) equipped with a 620 nm filter. Cell vitality was calculated as % vitality = 100 × (OD treated/OD DMSO).

Data set [6] relates to HaCaT epidermal keratinocytes. The experiment in a line: Cell viability MTT assay, HaCaT. The class given is cell-based. Conditions: 100, 50, 25 µM for 48 h, data not shown. The protocol: Epidermal keratinocytes (HaCaT) were cultured in Dulbecco’s Modified Eagle’s Medium containing 10% fetal bovine serum, supplemented with 100 U/mL each of penicillin and streptomycin, and 2 mM/L glutamine, and grown at 37 °C under 5% CO2 air humidified atmosphere. Human leukemia cell lines (Jurkat) were maintained in RPMI medium supplemented with 10% FBS, 2 mM l-glutamine, 100 U/mL penicillin, and […] at 37 °C, in 5% CO2 [26].
as §3, with “h. Staurosporin 0.2 µM was used as a positive control.” for “h.”

The subject of a further data set is BuChE. Particulars: read-out: IC50 (BuChE, by context); lignans from Citharexylum spinosum L.; cited from earlier work.

butyrylcholinesterase (BuChE), sequence (P06276 29-602): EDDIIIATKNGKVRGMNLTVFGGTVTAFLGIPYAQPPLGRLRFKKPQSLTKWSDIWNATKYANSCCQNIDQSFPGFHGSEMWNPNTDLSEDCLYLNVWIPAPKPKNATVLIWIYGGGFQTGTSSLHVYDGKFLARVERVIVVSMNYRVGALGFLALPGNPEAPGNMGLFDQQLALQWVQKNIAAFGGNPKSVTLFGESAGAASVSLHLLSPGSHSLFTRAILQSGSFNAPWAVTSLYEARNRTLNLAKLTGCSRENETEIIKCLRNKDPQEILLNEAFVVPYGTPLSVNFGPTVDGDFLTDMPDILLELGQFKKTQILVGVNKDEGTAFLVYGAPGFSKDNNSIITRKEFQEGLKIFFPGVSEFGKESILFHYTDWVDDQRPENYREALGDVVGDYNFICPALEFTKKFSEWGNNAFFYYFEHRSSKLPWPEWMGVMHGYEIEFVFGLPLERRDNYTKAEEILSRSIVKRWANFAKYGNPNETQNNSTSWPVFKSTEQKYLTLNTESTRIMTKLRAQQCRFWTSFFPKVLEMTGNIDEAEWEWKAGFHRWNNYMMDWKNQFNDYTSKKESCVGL
acetylcholinesterase (AChE), sequence (P22303 32-614, species assumed): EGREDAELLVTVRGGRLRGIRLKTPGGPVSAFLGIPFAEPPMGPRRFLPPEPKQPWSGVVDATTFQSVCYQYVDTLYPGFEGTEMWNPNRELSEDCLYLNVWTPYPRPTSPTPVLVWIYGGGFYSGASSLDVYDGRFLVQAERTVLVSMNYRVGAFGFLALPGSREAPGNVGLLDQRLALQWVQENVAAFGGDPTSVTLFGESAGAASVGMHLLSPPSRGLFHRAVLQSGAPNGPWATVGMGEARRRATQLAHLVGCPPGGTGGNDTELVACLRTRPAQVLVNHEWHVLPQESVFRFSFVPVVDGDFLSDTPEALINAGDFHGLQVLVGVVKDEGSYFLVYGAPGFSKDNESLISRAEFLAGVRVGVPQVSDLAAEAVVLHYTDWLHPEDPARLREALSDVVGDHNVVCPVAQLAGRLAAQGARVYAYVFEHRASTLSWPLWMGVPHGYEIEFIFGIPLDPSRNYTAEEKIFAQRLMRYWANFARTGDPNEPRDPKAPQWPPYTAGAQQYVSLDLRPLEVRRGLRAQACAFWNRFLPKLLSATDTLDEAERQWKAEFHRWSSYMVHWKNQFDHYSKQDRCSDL

As to `COc1cc(C[C@@H]2CO[C@@H](c3ccc(O)c(OC)c3)[C@@H]2COC(=O)c2ccccc2)ccc1O` [Compound 1, 4-benzoic acid 4-(4-hydroxy-3-meethoxybenzyl)-2-(4-hydroxy-3-methoxyphenyl) tetrahydrofuran-3-ylmethyl ester], the IC50 – broadly, the concentration needed to halve the response being measured – at α-glucosidase was found to be 26.8 ± 3.29 µM; in data set [2], 10.41 ± 0.03 µM. Besides, the inhibition (commonly the percentage by which the read-out fell short of the control) at 100 µM in data set [1] is 21%. In addition, the “cytotoxicity (MTT)” value in data set [3], in data set [4], in data set [5] and in data set [6] was “not toxic” in each case.
With plucheoside D1, the IC50 in the data set on BuChE is 98.1 ± 2.72 µM.
As to plucheoside D2, the IC50 in the data set on BuChE is 71.3 ± 2.82 µM.
